Source: patent US5990326A, “3-oxiranyl benzoic acids and derivatives thereof” (G.D. Searle & Co., priority 1992, dated 1999)
Where a name gives a salt, the structure may show the parent alone.

How the values were obtained:
[1] = system: A23187-Induced LTB4 Production in Human Promyelocytic Leukemia HL-60 Cells; test: A23187-Induced LTB4 Production in Human Promyelocytic Leukemia HL-60 Cells (HL-60 Cell Assay); type: cell-based; set-up: key to HL-60 Cell Assay % Inhibition: I: inactive at that concentration; settings: for IC50: A23187-stimulated HL-60 cells, LTB4
Text: A23187-Induced LTB4 Production in Human Promyelocytic Leukemia HL-60 Cells.
Materials: Calcium ionophore A23187 was obtained from Calbiochem (La Jolla, Calif.). Trans-stilbene oxide was obtained from Sigma (St. Louis, Mis.). Hanks' balanced salt solution (HBSS) (10× concentrate), 1M Hepes, and Dulbecco's modified Eagle medium were obtained from GIBCO Laboratories (Grand Island, N.Y.). Fetal bovine serum was obtained from HyClone Laboratories (Logan, Utah). The LTB4 and PGE2 radioimmunoassay antibodies were purchased from Amersham International plc (Amersham, UK) and NEN Research Products (N. Billerica, Mass.), respectively. Reagents for assay of lactate dehydrogenase (LDH) activity were purchased from Beckman (Carlsbad, Calif.).
Preparation of HL-60 Cells: HL-60 cells were cultured in Dulbecco's modified Eagle medium (supplemented with 20% fetal bovine serum, 20 mM Hepes, 100 U/ml penicillin and 100 mcg/ml streptomycin) and maintained at 37° C. in a humidified atmosphere of 5% CO2 in air. Cells from exponentially growing cultures were seeded at 3×10^5 cells/ml and induced to differentiate into granulocytes wth 0.8% (v/v) N,N-dimethylformamide for 4 days (1,2). Prior to assay, differentiated HL-60 cells were washed once with Hanks' balanced salt solution containing 0.35 mg/ml sodium bicarbonate and 10 mM Hepes, pH 7.3 (HBSS) and resuspended in HBSS at a concentration of 3×10^6 cells/ml. HL-60 cell viability was >95% as assessed by trypan blue exclusion.
HL-60 Cell Assay: DMSO or test compounds as 100× concentrates in DMSO were added in duplicate to 1.0 ml HL-60 cell suspensions (3×10^6cells) and preincubated at 37° C. for 10 minutes in a shaking water bath. After an additional 5 minute incubation with calcium ionophore A23187 (10 mcl @ 5×10^-4 M in DMSO), the cells were pelleted at 12,800×g for 15 seconds and the supernatant removed and stored at -20° C. for quantification of LTB4 or PGE2 via radioimmunoassay and LDH activity.
Statistical Methods: LTB4 and PGE2 data were expressed as percent inhibition of A23187-stimulated controls. For IC50 determinations, the 4 parameter logistic model was used where y is the percent inhibition response and x is the log10 concentration of the inhibitor: [formula] Nonlinear regression was performed using the SAS (3) procedure NLIN to obtain least squares estimates of the four parameters in the above equation: yx (maximum), Y0 (minimum), a (log10 IC50) and b (slope factor). Increases in mean LDH levels for A23187-stimulated cells in the presence of test compound were tested for significance using a one-tailed two sample Student's t-test.

LTA4 hydrolase = molecular target: T1, LTA4 hydrolase (Rattus norvegicus, UniProt P30349); test: Leukotriene-A4 (LTA4) Hydrolase Enzyme Assay (inhibition of LTB4 production by rat neutrophil cytosol, RIA); type: biochemical, rat (male Sprague Dawley); settings: for inhibition at 100 µM: 10^-4 M; for IC50: rat neutrophil cytosolic LTA4 hydrolase
T1 construct: the supernatant containing cytosolic LTA4 hydrolase was obtained; from tissue; host or cells: peritoneal neutrophils (90-95% pure, oyster-glycogen elicited) of male Sprague Dawley rats; 100,000 x G supernatant of the homogenate
T1 sequence (P30349 1-611): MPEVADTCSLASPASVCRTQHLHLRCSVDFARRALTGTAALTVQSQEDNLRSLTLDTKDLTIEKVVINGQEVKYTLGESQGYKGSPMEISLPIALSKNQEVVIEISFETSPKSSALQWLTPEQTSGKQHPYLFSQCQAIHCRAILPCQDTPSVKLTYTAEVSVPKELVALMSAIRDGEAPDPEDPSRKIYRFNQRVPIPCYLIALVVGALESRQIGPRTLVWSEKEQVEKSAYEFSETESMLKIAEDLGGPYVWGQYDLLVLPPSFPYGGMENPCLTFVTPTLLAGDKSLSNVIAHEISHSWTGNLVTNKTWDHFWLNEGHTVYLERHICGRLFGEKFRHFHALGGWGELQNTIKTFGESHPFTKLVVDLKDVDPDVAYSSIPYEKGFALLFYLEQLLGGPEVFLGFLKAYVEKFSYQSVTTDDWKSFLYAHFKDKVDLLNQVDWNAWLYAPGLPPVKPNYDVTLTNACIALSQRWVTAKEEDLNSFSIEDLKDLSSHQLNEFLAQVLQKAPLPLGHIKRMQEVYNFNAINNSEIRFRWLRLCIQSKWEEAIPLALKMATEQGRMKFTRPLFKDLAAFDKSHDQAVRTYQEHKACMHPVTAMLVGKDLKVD
Text: Leukotriene --A4 Hydrolase Inhibition Materials
Leukotriene-A4 -methyl ester and leukotriene-A3 were purchased from Biomol (Cambridge). Trans-stilbene oxide, EDTA, phenylmethyl sulphonyl fluoride were purchased from Sigma (St. Louis). Eagles Basil Media was purchased from GIBCO (Grand Island). LTB4 radioimmunoassay kit was purchased from Amersham (Arlington Heights, Ill.) (#Trk. 840).
Methods were modified from those reported by Evans et al., Biochem. Biophys. Acta, 840:43-50 (1985).
Male Sprague Dawley (CD1) rats (250-400 gm bodyweight) were given oyster glycogen, 1 mg/ml in 0.9% NaCl, by intraperitoneal injection. The animals were sacrificed after 8-20 hours and the peritoneal cavity washed with 10 ml Eagles Basil Medium (pH 7.4, 25 mM HEPES, without glutamine). The collected peritoneal lavage fluid was centrifuged at 150×G, 15 minutes at 4° C. to isolate the neutrophils. The supernatant was removed and the cell pellet was resuspended in 20 cc 10 mM sodium phosphate buffer, pH 7.0 with 2 mM Na-EDTA and 1 mM phenylmethyl sulphonyl fluoride (PMSF).
Leukotriene-A4 Hydrolase Isolation
The cell suspensions, which were 90-95% neutrophils as determined by cytometry, were homogenized by a polytron at 4° C. with three 30 second bursts with cooling on ice in between. The homogenate was centrifuged at 100,000×G for 60 minutes, and the supernatant containing cytosolic LTA4 hydrolase was obtained.
LTA4 Methyl Ester Deesterificaiton
LTA4, the substrate for LTA4 hydrolase, is supplied as the stable methyl ester that must be hydrolized to the active form. LTA4 -methyl ester (5000 ng) was dried under a stream of super-dry Argon (Matheson) to which was added a 1 ml methanol: 10M NaOH (9.8:0.2 v/v). The mixture was stirred 3 hours at 4° C. and used immediately.
LTA4 Hydrolase Enzyme Assay
Supernatant containing LTA4 hydrolase, 0.5 ml, was added to 0.5 ml Tris-acetate buffer, pH 7.8, containing 1 mg/ml fatty-acid free BSA. The mixture was incubated 3 minutes at 37° C. with 0.1 ml containing different enzyme inhibitor and test compound concentrations in DMSO. LTA4, 25 ng in 20 μl methanol, was added and incubation with shaking continued at 37° C. for one minute. The reaction was quenched with 2 ml ice-cold ethanol. The quenched mixture was immediately frozen at -76° C. LTB4 levels were determined by radioimmunoassay (RIA) with a validated commercial kit. Various concentrations of potential enzyme inhibitors were evaluated for inhibition of LTB4 production using a standardized amount of enzyme and substrate. The amount of inhibitor necessary to reduce LTB4 production by fifty percent was calculated as the IC50 value for each inhibitor. IC50 values were determined by least square linear regression analysis from the average ±SEM for 4 experiments.

SMILES | inhibition at 100 µM (LTA4 hydrolase) | IC50 ([1]; Homo sapiens) | IC50 (LTA4 hydrolase) | HL-60 Cell Assay % Inhibition ([1]; 10^-5 M) | inhibition at 100 µM ([1]; Homo sapiens, HL-60, 10^-4 M) | inhibition at 10 µM ([1]; Homo sapiens, HL-60, 10^-5 M) | inhibition at 1 µM ([1]; Homo sapiens, HL-60, 10^-6 M) | HL-60 Cell Assay % Inhibition ([1]; 10^-6 M) | inhibition at 50 µM ([1]; Homo sapiens, HL-60, 5 × 10^-5 M) | HL-60 Cell Assay % Inhibition ([1]; 10^-4 M)
CCCCCCCCCC/C=C/C=C/C1OC1c1cccc(C(=O)OC)c1 (centres unmarked) [Example 4, Methyl 3-[3-(1E,3E-tetradecadienyl)oxiranyl]benzoate] |  |  |  | I | 29% |  |  |  |  | 
CCCCCCCCCCCCCC[C@@H]1O[C@H]1c1cccc(C(=O)OC)c1 (relative stereo) [Example 22, Methyl 3-(3-tetradecyloxiranyl)benzoate] | 20% |  |  | I | 79% |  |  |  |  | 
CCCCCCCCCCCC/C=C/C1OC1c1cccc(C(=O)OC)c1 (centres unmarked) [Example 1, Methyl 3-[3-(1E-tetradecenyl)oxiranyl]benzoate] |  |  |  |  |  |  |  |  |  | I

More lines, main results first:

inhibition at 100 µM (LTA4 hydrolase) | IC50 ([1]; Homo sapiens) | IC50 (LTA4 hydrolase) | SMILES | HL-60 Cell Assay % Inhibition ([1]; 10^-5 M) | inhibition at 100 µM ([1]; Homo sapiens, HL-60, 10^-4 M) | inhibition at 10 µM ([1]; Homo sapiens, HL-60, 10^-5 M) | inhibition at 1 µM ([1]; Homo sapiens, HL-60, 10^-6 M) | HL-60 Cell Assay % Inhibition ([1]; 10^-6 M) | inhibition at 50 µM ([1]; Homo sapiens, HL-60, 5 × 10^-5 M) | HL-60 Cell Assay % Inhibition ([1]; 10^-4 M)
40% | 2800 nM |  | CCCCCCCCCCCC/C=C/C1OC1c1cccc(C(=O)O)c1 (centres unmarked) [Example 1,Li^+ salt] |  | 94% | 96% | 26% |  |  | 
58% | 160 nM | 80000 nM | CCCCCCCCCC/C=C/C=C/C1OC1c1cccc(C(=O)O)c1 (centres unmarked) [Example 4,Li^+ salt] |  | 88% | 89% | 77% |  |  | 
85% | 15000 nM | 2000 nM | CCCCCCCC/C=C/C=C/C=C/C1OC1c1cccc(C(=O)O)c1 (centres unmarked) [Example 7,Li^+ salt] |  |  | 61% |  | I | 80% | 
